Values belong to the compound of their own block, whether it stands above or below them.
Experiments:
[1] = Biodistribution in muscle of iv dosed KM mouse assessed as radioactivity after 2 mins by imaging analysis; assay type: ADME, organism-based, Muscle tissue; settings: in vivo
[2] = Biodistribution in kidney of iv dosed KM mouse assessed as radioactivity after 60 mins by imaging analysis; assay type: ADME, organism-based; settings: in vivo, 1 h
[3] = Biodistribution in small intestine of iv dosed KM mouse assessed as radioactivity after 60 mins by imaging analysis; assay type: ADME, organism-based; settings: in vivo, 1 h
[4] = Biodistribution in muscle of iv dosed KM mouse assessed as radioactivity after 10 mins by imaging analysis; assay type: ADME, organism-based, Muscle tissue; settings: in vivo
[5] = Biodistribution in stomach of iv dosed KM mouse assessed as radioactivity after 10 mins by imaging analysis; assay type: ADME, organism-based; settings: in vivo
[6] = Biodistribution in blood of iv dosed KM mouse assessed as radioactivity after 10 mins by imaging analysis; assay type: ADME, organism-based; settings: in vivo
[7] = Biodistribution in small intestine of iv dosed KM mouse assessed as radioactivity after 2 mins by imaging analysis; assay type: ADME, organism-based; settings: in vivo
[8] = Biodistribution in muscle of iv dosed KM mouse assessed as radioactivity after 30 mins by imaging analysis; assay type: ADME, organism-based, Muscle tissue; settings: in vivo, 0.5 h
[9] = Biodistribution in heart of iv dosed KM mouse assessed as radioactivity after 60 mins by imaging analysis; assay type: ADME, organism-based; settings: in vivo, 1 h
[10] = Biodistribution in stomach of iv dosed KM mouse assessed as radioactivity after 30 mins by imaging analysis; assay type: ADME, organism-based; settings: in vivo, 0.5 h
[11] = Biodistribution in pancreas of iv dosed KM mouse assessed as radioactivity after 10 mins by imaging analysis; assay type: ADME, organism-based; settings: in vivo
[12] = Biodistribution in kidney of iv dosed KM mouse assessed as radioactivity after 2 mins by imaging analysis; assay type: ADME, organism-based; settings: in vivo
[13] = Biodistribution in liver of iv dosed KM mouse assessed as radioactivity after 30 mins by imaging analysis; assay type: ADME, organism-based; settings: in vivo, 0.5 h
[14] = Biodistribution in pancreas of iv dosed KM mouse assessed as radioactivity after 60 mins by imaging analysis; assay type: ADME, organism-based; settings: in vivo, 1 h
[15] = Biodistribution in stomach of iv dosed KM mouse assessed as radioactivity after 60 mins by imaging analysis; assay type: ADME, organism-based; settings: in vivo, 1 h
[16] = Biodistribution in lung of iv dosed KM mouse assessed as radioactivity after 30 mins by imaging analysis; assay type: ADME, organism-based; settings: in vivo, 0.5 h
[17] = Lipophilicity, logD of compound; assay type: physicochemical; settings: octanol/water
[18] = Biodistribution in heart of iv dosed KM mouse assessed as radioactivity after 2 mins by imaging analysis; assay type: ADME, organism-based; settings: in vivo
[19] = Biodistribution in stomach of iv dosed KM mouse assessed as radioactivity after 2 mins by imaging analysis; assay type: ADME, organism-based; settings: in vivo
[20] = Biodistribution in small intestine of iv dosed KM mouse assessed as radioactivity after 30 mins by imaging analysis; assay type: ADME, organism-based; settings: in vivo, 0.5 h
[21] = Biodistribution in kidney of iv dosed KM mouse assessed as radioactivity after 30 mins by imaging analysis; assay type: ADME, organism-based; settings: in vivo, 0.5 h
[22] = Biodistribution in bone of iv dosed KM mouse assessed as radioactivity after 60 mins by imaging analysis; assay type: ADME, organism-based, Bone element; settings: in vivo, 1 h
[23] = Biodistribution in liver of iv dosed KM mouse assessed as radioactivity after 2 mins by imaging analysis; assay type: ADME, organism-based; settings: in vivo
[24] = Biodistribution in brain of iv dosed KM mouse assessed as radioactivity after 2 mins by imaging analysis; assay type: ADME, organism-based; settings: in vivo
[25] = Biodistribution in brain of iv dosed KM mouse assessed as radioactivity after 60 mins by imaging analysis; assay type: ADME, organism-based; settings: in vivo, 1 h
[26] = Biodistribution in liver of iv dosed KM mouse assessed as radioactivity after 10 mins by imaging analysis; assay type: ADME, organism-based; settings: in vivo
[27] = Biodistribution in lung of iv dosed KM mouse assessed as radioactivity after 2 mins by imaging analysis; assay type: ADME, organism-based; settings: in vivo
[28] = Biodistribution in bone of iv dosed KM mouse assessed as radioactivity after 2 mins by imaging analysis; assay type: ADME, organism-based, Bone element; settings: in vivo
[29] = Stability in iv dosed KM mouse assessed as radioactivity of parent compound remaining in blood after 1 hrs by radio-HPLC analysis; assay type: ADME, organism-based; settings: in vivo
[30] = Biodistribution in liver of iv dosed KM mouse assessed as radioactivity after 60 mins by imaging analysis; assay type: ADME, organism-based; settings: in vivo, 1 h
[31] = Biodistribution in blood of iv dosed KM mouse assessed as radioactivity after 60 mins by imaging analysis; assay type: ADME, organism-based; settings: in vivo, 1 h
[32] = Biodistribution in small intestine of iv dosed KM mouse assessed as radioactivity after 10 mins by imaging analysis; assay type: ADME, organism-based; settings: in vivo
[33] = Biodistribution in kidney of iv dosed KM mouse assessed as radioactivity after 10 mins by imaging analysis; assay type: ADME, organism-based; settings: in vivo
[34] = Biodistribution in pancreas of iv dosed KM mouse assessed as radioactivity after 2 mins by imaging analysis; assay type: ADME, organism-based; settings: in vivo
[35] = Biodistribution in heart of iv dosed KM mouse assessed as radioactivity after 30 mins by imaging analysis; assay type: ADME, organism-based; settings: in vivo, 0.5 h
[36] = Biodistribution in spleen of iv dosed KM mouse assessed as radioactivity after 10 mins by imaging analysis; assay type: ADME, organism-based; settings: in vivo
[37] = Biodistribution in lung of iv dosed KM mouse assessed as radioactivity after 60 mins by imaging analysis; assay type: ADME, organism-based; settings: in vivo, 1 h
[38] = Biodistribution in blood of iv dosed KM mouse assessed as radioactivity after 30 mins by imaging analysis; assay type: ADME, organism-based; settings: in vivo, 0.5 h
[39] = Biodistribution in blood of iv dosed KM mouse assessed as radioactivity after 2 mins by imaging analysis; assay type: ADME, organism-based; settings: in vivo
[40] = Biodistribution in spleen of iv dosed KM mouse assessed as radioactivity after 60 mins by imaging analysis; assay type: ADME, organism-based; settings: in vivo, 1 h
[41] = Biodistribution in spleen of iv dosed KM mouse assessed as radioactivity after 2 mins by imaging analysis; assay type: ADME, organism-based; settings: in vivo
[42] = Biodistribution in heart of iv dosed KM mouse assessed as radioactivity after 10 mins by imaging analysis; assay type: ADME, organism-based; settings: in vivo
[43] = Biodistribution in bone of iv dosed KM mouse assessed as radioactivity after 30 mins by imaging analysis; assay type: ADME, organism-based, Bone element; settings: in vivo, 0.5 h
[44] = Biodistribution in muscle of iv dosed KM mouse assessed as radioactivity after 60 mins by imaging analysis; assay type: ADME, organism-based, Muscle tissue; settings: in vivo, 1 h
[45] = Biodistribution in spleen of iv dosed KM mouse assessed as radioactivity after 30 mins by imaging analysis; assay type: ADME, organism-based; settings: in vivo, 0.5 h
[46] = Biodistribution in lung of iv dosed KM mouse assessed as radioactivity after 10 mins by imaging analysis; assay type: ADME, organism-based; settings: in vivo
[47] = Biodistribution in bone of iv dosed KM mouse assessed as radioactivity after 10 mins by imaging analysis; assay type: ADME, organism-based, Bone element; settings: in vivo
[48] = Biodistribution in pancreas of iv dosed KM mouse assessed as radioactivity after 30 mins by imaging analysis; assay type: ADME, organism-based; settings: in vivo, 0.5 h
[49] = Stability in mouse plasma assessed as parent compound remaining after 4 hrs by radio-HPLC analysis; assay type: ADME, cell-free; settings: read-out: Stability
[50] = Biodistribution in brain of iv dosed KM mouse assessed as radioactivity after 10 mins by imaging analysis; assay type: ADME, organism-based; settings: in vivo
[51] = Biodistribution in brain of iv dosed KM mouse assessed as radioactivity after 30 mins by imaging analysis; assay type: ADME, organism-based; settings: in vivo, 0.5 h
[52] = molecular target: Glycogen synthase kinase-3 beta (Homo sapiens, UniProt P49841); assay: Inhibition of GSK-3beta (unknown origin)
Glycogen synthase kinase-3 beta, sequence (P49841 whole entry): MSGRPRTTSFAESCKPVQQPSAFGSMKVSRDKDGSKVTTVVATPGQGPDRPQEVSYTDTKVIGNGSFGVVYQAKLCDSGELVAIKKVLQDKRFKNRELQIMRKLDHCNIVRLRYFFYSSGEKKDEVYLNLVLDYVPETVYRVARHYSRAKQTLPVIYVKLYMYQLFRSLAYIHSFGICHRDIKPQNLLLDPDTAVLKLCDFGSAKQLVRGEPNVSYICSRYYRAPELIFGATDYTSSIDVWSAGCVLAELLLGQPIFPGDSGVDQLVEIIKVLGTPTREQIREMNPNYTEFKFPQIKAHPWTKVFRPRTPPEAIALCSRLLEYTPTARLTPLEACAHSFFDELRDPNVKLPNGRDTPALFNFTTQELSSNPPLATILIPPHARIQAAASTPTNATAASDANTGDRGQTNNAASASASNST

Drug uptake [1]: 3.45 % ID/g | Drug uptake [2]: 7.11 % ID/g | Drug uptake [3]: 31.31 % ID/g | Drug uptake [4]: 2.18 % ID/g | Drug uptake [5]: 3.29 % ID/g | Drug uptake [6]: 3.5 % ID/g | Drug uptake [7]: 9.74 % ID/g | Drug uptake [8]: 1.38 % ID/g | Drug uptake [9]: 1.73 % ID/g | Drug uptake [10]: 2.92 % ID/g | Drug uptake [11]: 5.07 % ID/g | Drug uptake [12]: 16.09 % ID/g | Drug uptake [13]: 23.75 % ID/g | Drug uptake [14]: 1.76 % ID/g | Drug uptake [15]: 1.88 % ID/g | Drug uptake [16]: 2.87 % ID/g | logD [17]: 2.24 | Drug uptake [18]: 8.03 % ID/g | Drug uptake [19]: 2.53 % ID/g | Drug uptake [20]: 24.4 % ID/g | Drug uptake [21]: 13.09 % ID/g | Drug uptake [22]: 2.91 % ID/g | Drug uptake [23]: 22.28 % ID/g | Drug uptake [24]: 1.68 % ID/g | Drug uptake [25]: 0.31 % ID/g | Drug uptake [26]: 32.93 % ID/g | Drug uptake [27]: 7.28 % ID/g | Drug uptake [28]: 2.83 % ID/g | Stability [29]: 90% | Drug uptake [30]: 15.27 % ID/g | Drug uptake [31]: 1.11 % ID/g | Drug uptake [32]: 11.16 % ID/g | Drug uptake [33]: 14.4 % ID/g | Drug uptake [34]: 7.32 % ID/g | Drug uptake [35]: 3.41 % ID/g | Drug uptake [36]: 4.48 % ID/g | Drug uptake [37]: 1.54 % ID/g | Drug uptake [38]: 2.18 % ID/g | Drug uptake [39]: 5.64 % ID/g | Drug uptake [40]: 1.4 % ID/g | Drug uptake [41]: 5.28 % ID/g | Drug uptake [42]: 5.44 % ID/g | Drug uptake [43]: 2.05 % ID/g | Drug uptake [44]: 0.87 % ID/g | Drug uptake [45]: 2.91 % ID/g | Drug uptake [46]: 4.5 % ID/g | Drug uptake [47]: 2.42 % ID/g | Drug uptake [48]: 3.05 % ID/g | remaining at 4 h [49]: > 95% | Drug uptake [50]: 0.77 % ID/g | Drug uptake [51]: 0.42 % ID/g
SMILES: CNC(=O)c1sc(-c2ccnc(NC(=O)C3CC3)c2)nc1OCC[18F]

IC50 [52]: 18.2 nM
SMILES: O=C(NCCF)c1sc(-c2ccnc(NC(=O)C3CC3)c2)nc1OCC1CC1

IC50 [52]: 152 nM
SMILES: CN(C)C(=O)c1sc(-c2ccnc(NC(=O)C3CC3)c2)nc1OCCF

IC50 [52]: 36.5 nM
SMILES: CNC(=O)c1sc(-c2ccnc(NC(=O)C3CC3)c2)nc1OCCOCCF

IC50 [52]: 345 nM
SMILES: CCOC(=O)c1sc(-c2ccnc(NC(=O)C3CC3)c2)nc1OCCOCCOCCF

IC50 [52]: 42.1 nM
SMILES: O=C(Nc1cc(-c2nc(OCC3CC3)c(C(=O)N3CC(F)C3)s2)ccn1)C1CC1

IC50 [52]: 426 nM
SMILES: CN(C)C(=O)c1sc(-c2ccnc(NC(=O)C3CC3)c2)nc1OCCOCCOCCF

IC50 [52]: 68.1 nM
SMILES: CCOC(=O)c1sc(-c2ccnc(NC(=O)C3CC3)c2)nc1OCCF

IC50 [52]: 6 nM
SMILES: CNC(=O)c1sc(-c2ccnc(NC(=O)C3CC3)c2)nc1OCCF

IC50 [52]: 149 nM
SMILES: CN(C)C(=O)c1sc(-c2ccnc(NC(=O)C3CC3)c2)nc1OCCOCCF

IC50 [52]: 422 nM
SMILES: CCOC(=O)c1sc(-c2ccnc(NC(=O)C3CC3)c2)nc1OCCOCCF
